Consider 53 compounds from patent US9334269B2, “Carboxamides as inhibitors of voltage-gated sodium channels” (AMGEN INC., priority 2010, dated 2016).

T1 sequence (Q15858 whole entry): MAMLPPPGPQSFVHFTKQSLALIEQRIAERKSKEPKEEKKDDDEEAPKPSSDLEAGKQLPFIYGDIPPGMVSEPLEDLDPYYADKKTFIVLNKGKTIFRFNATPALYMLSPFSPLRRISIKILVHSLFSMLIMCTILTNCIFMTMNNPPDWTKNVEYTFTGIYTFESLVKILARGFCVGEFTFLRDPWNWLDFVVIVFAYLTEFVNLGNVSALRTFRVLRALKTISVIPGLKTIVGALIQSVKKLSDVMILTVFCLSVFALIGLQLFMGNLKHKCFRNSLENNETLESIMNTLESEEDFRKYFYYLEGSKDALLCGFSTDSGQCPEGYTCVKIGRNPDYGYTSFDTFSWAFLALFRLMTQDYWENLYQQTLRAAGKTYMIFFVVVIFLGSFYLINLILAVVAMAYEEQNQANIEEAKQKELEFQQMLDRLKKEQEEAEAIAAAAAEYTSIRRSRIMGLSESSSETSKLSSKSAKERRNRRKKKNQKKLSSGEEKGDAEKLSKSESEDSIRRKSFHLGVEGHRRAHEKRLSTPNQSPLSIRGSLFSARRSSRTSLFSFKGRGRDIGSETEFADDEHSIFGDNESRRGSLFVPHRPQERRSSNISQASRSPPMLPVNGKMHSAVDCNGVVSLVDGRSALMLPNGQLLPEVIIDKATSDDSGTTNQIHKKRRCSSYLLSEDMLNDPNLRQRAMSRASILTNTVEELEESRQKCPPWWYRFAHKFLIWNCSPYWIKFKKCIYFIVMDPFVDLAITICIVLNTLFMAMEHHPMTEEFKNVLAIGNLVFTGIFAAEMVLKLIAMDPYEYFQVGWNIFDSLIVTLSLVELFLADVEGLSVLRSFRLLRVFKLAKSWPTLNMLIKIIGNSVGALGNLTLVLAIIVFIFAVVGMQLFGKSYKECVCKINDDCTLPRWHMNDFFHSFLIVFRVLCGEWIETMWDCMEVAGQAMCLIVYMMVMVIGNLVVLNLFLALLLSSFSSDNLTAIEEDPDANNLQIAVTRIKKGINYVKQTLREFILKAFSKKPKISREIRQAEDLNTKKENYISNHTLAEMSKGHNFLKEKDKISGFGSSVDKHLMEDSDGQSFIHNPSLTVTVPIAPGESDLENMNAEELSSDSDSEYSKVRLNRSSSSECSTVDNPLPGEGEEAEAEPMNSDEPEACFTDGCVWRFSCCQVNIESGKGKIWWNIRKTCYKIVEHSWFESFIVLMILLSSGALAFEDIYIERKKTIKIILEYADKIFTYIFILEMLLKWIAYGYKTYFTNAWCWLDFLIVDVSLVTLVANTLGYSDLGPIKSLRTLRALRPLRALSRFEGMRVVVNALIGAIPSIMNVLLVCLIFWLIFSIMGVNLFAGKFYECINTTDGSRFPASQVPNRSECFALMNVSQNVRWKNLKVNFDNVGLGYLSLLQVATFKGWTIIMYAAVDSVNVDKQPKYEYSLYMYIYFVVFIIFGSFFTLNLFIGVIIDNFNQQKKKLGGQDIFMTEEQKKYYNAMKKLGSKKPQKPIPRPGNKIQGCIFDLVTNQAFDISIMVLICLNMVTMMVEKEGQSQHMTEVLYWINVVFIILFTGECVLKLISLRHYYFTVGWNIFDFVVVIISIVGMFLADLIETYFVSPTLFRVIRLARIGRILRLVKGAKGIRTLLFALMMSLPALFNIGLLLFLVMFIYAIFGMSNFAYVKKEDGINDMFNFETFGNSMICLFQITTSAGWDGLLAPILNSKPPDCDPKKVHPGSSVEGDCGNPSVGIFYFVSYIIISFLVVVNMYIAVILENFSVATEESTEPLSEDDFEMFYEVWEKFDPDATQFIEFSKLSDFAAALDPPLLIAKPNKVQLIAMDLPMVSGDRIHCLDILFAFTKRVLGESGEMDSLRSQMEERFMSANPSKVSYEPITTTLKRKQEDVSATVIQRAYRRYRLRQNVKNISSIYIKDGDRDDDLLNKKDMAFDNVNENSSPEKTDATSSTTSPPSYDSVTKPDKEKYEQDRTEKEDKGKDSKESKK

The experiment addresses T1, human Nav1.7 (hNav1.7) (Homo sapiens, UniProt Q15858).
T1 construct: expressed in transfected cells
The experiment is described as follows: hNav1.7 whole-cell patch-clamp electrophysiology (automated PatchXpress 7000A or manual) in stably expressing 293 cells. Type of experiment: cell-based. The settings on record: average IC50, human Nav1.7. Here is the method:
Compounds were tested on human Nav1.7 (hNav1.7) expressed stably in 293 cells, which have no endogenous sodium channels. Two forms of whole-cell patch-clamp assays were used. In both, peak current through Nav1.7 was evoked by a depolarizing voltage pulse, and currents were monitored as a function of time in response to exposure to several different concentrations of drug. Automated electrophysiology uses the PatchXpress 7000A system. Up to sixteen cells at a time were voltage-clamped in parallel, and the steady-state voltage dependence of inactivation was determined experimentally for each cell. For each cell, fractional inactivation was set at 20%, and peak current through Nav1.7 as a function of time was measured in response to increasing concentrations of test compound. Manual electrophysiology refers to conventional whole-cell patch-clamping (Hamill et al., 1981). After formation of the whole-cell clamp, cells were lifted off the bottom of the dish with the patch pipette and positioned directly in front of an array of glass microperfusion tubes each with internal diameter about 250 microns, with individual compound concentrations flowing from each tube. Current as a function of time in response to increasing drug concentrations was measured with Nav1.7 fully in the resting state (holding voltage set to −140 mV) and on the same cells with the holding voltage set to produce about 20% inactivation. Compounds were not applied for a prespecified time, but for as long as required to achieve a stable level of block. For both forms of electrophysiology, offline analysis was used to correct for rundown of channel current and to determine percent inhibition as a function of drug concentration. IC50 were determined by fitting to the Hill equation.
In general terms: In patch-clamp work, channel activity is measured electrically.
For the compound `CNC(=O)c1cccc(Nc2ncnc(N3CC(Oc4ccc(C(C)(C)C)cc4)C3)n2)c1` [Example 149], the IC50 turned out to be 2.99 µM.
In the case of `CNC(=O)c1cccc(Nc2ncnc(N3CCC(OCc4ccc(C(F)(F)F)cc4)CC3)n2)c1` [Example 150] it was 3.03 µM; in that of `CNC(=O)c1cccc(Nc2ncnc(N3CCC(Cc4ccc(F)c(F)c4)CC3)n2)c1` [Example 151], 3.1 µM.
Take `CNC(=O)c1cccc(Nc2ncnc(NCCCOc3ccc(Cl)cc3)n2)c1` [Example 152]: inhibition was half-maximal at 3.1 µM (IC50).
Compound `CNC(=O)c1cccc(Nc2ncnc(N3CC(Oc4c(F)cc(Cl)cc4F)C3)n2)c1` [Example 153] yielded an IC50 of 3.16 µM.
With `CNC(=O)c1cccc(Nc2ncnc(N3CC(Oc4cc(C)ccc4F)C3)n2)c1` [Example 155] the figure was 3.17 µM.
For `CNC(=O)c1cccc(Nc2ncnc(NCCCOc3ccc(OC(F)(F)F)cc3)n2)c1C` [Example 156], it took 3.34 µM to reach half-maximal inhibition (IC50).
With `CNC(=O)c1cccc(Nc2ncnc(N3CCN(c4ccc(Cl)cc4)CC3)n2)c1` [Example 157] the figure was 3.36 µM; with `CNC(=O)c1cccc(Nc2ncnc(N3CC(COc4ccc(Cl)c(Cl)c4)C3)n2)c1` [Example 158], 3.5 µM.
For the compound `CNC(=O)c1cccc(Nc2ncnc(N3CCN(c4ccc(OC)cc4)CC3)n2)c1` [Example 159], 3.5 µM corresponded to half-maximal inhibition (IC50).
In turn, `CNC(=O)c1ccc(C)c(Nc2ncnc(N3CC(Oc4ccc(F)cc4)C3)n2)c1` [Example 160] came in with an IC50 of 3.65 µM.
In the case of `CNC(=O)c1c(F)ccc(Nc2ncnc(N3CC(COc4ccc(Cl)cc4)C3)n2)c1F` [Example 161], the IC50 came out at 3.67 µM.
Take `CNC(=O)c1cc(Nc2ncnc(N3CC(Oc4ccc(Cl)cc4)C3)n2)ccc1Cl` [Example 162]: 3.69 µM corresponded to half-maximal inhibition (IC50).
`CNC(=O)c1cccc(Nc2ncnc(N3CC(COc4ccc(F)cc4)C3)n2)c1` [Example 163] gave an IC50 of 3.71 µM.
With `CNC(=O)c1cc(Nc2ncnc(NCCCOc3cccc(C(F)(F)F)c3)n2)ccc1Cl` [Example 164] the figure was 3.75 µM; with `CNC(=O)c1ccc(F)c(Nc2ncnc(N3CC(Oc4ccc(F)cc4)C3)n2)c1` [Example 165], 3.82 µM.
`CNC(=O)c1cccc(Nc2ncnc(N3CCC(Oc4ccc(Cl)c(OC(F)(F)F)c4)CC3)n2)c1` [Example 166] displayed an IC50 of 4.05 µM.
Compound `CNC(=O)c1cccc(Nc2ncnc(N3CCC(n4cc(-c5ccc(Cl)cc5)cn4)CC3)n2)c1` [Example 167] showed an IC50 of 4.16 µM.
Compound `CNC(=O)c1cccc(Nc2ncnc(N3CCC(c4nc(-c5ccccc5)c(C)s4)CC3)n2)c1` [Example 168] yielded a 50% inhibitory concentration (IC50) of 4.22 µM.
With `CNC(=O)c1cccc(Nc2ncnc(NCCCOc3ccc(C(F)(F)F)cc3)n2)c1` [Example 169] the figure was 4.25 µM; with `CNC(=O)c1cccc(Nc2ncnc(N3CCC(c4ccc(C#N)cc4)CC3)n2)c1` [Example 170], 4.3 µM; with `CNC(=O)c1cccc(Nc2ncnc(N3CC(COc4cccc(OC(F)(F)F)c4)C3)n2)c1` [Example 171], 4.33 µM.
For the compound `CNC(=O)c1cccc(Nc2ncnc(N3CCN(c4ccccc4OC(F)(F)F)CC3)n2)c1` [Example 172], the half-maximal inhibitory concentration (IC50) amounted to 4.45 µM.
As for `CNC(=O)c1cc(F)cc(Nc2ncnc(N3CC(COc4ccc(Cl)cc4)C3)n2)c1` [Example 173], the IC50 turned out to be 4.56 µM.
`O=C(NCC(F)(F)F)c1cccc(Nc2ncnc(N3CC(Oc4ccc(F)cc4)C3)n2)c1` [Example 174]: the IC50 was determined as 4.62 µM.
Compound `CNC(=O)c1cccc(Nc2ncnc(N3CCC(Oc4ccccn4)CC3)n2)c1` [Example 175] returned a 50% inhibitory concentration (IC50) of 4.63 µM.
`CNC(=O)c1cccc(Nc2ncnc(N3CCc4cc(F)ccc4C3)n2)c1` [Example 176] registered an IC50 of 4.67 µM.
Take `CNC(=O)c1cccc(Nc2ncnc(N3CC(Oc4cc(F)ccc4F)C3)n2)c1` [Example 177]: the IC50 was found to be 4.72 µM.
`CNC(=O)c1cccc(Nc2ncnc(N3CCN(c4ccccc4C(F)(F)F)CC3)n2)c1` [Example 178] displayed an IC50 of 4.78 µM.
Turning to `CNC(=O)c1cccc(Nc2cc(N3CC(Oc4ccc(F)cc4)C3)ccn2)c1` [Example 179], inhibition was half-maximal at 4.84 µM (IC50).
With `CNC(=O)c1cccc(Nc2ncnc(N3CCN(Cc4ccc(OC(F)(F)F)cc4)CC3)n2)c1` [Example 180] the figure was 4.85 µM; with `CNC(=O)c1cccc(Nc2ncnc(N3CC(Oc4ccccc4OC(F)(F)F)C3)n2)c1` [Example 181], 4.93 µM.
Turning to `CNC(=O)c1cccc(Nc2ncnc(N3CC(C)(Oc4ccc(C)cc4)C3)n2)c1` [Example 182], the IC50 came out at 5.1 µM.
With `CNC(=O)c1c(F)ccc(Nc2ncnc(N3CC(Oc4ccc(Cl)cc4)C3)n2)c1F` [Example 183] the figure was 5.19 µM.
`CNC(=O)c1cccc(Nc2ncnc(N3CC(c4ccc(Cl)cc4)C3)n2)c1` [Example 184] yielded an IC50 of 5.23 µM.
`CNC(=O)c1cccc(Nc2ncnc(N3CCc4cc(C)ccc4C3)n2)c1` [Example 185] gave an IC50 of 5.28 µM.
Compound `CNC(=O)c1cccc(Nc2ncnc(N3CC(Oc4cc(F)cc(F)c4)C3)n2)c1` [Example 187] had an IC50 of 5.43 µM.
Regarding `CNC(=O)c1cccc(Nc2ncnc(N3CC(COc4cccc(C(F)(F)F)c4)C3)n2)c1` [Example 188], the midpoint of inhibition, the IC50, lay at 5.44 µM.
Regarding `CNC(=O)c1cccc(Nc2ncnc(N3CC(COCc4ccc(C(F)(F)F)cc4)C3)n2)c1` [Example 189], 5.56 µM corresponded to half-maximal inhibition (IC50).
For the compound `CNC(=O)c1cccc(Nc2ncnc(N3CCC(n4cc(-c5ccccc5Cl)cn4)CC3)n2)c1` [Example 190], it took 5.58 µM to reach half-maximal inhibition (IC50).
In the case of `CNC(=O)c1cccc(Nc2ncnc(N3CCN(Cc4ccccc4OC(F)(F)F)CC3)n2)c1` [Example 191] it was 5.6 µM; in that of `CNC(=O)c1cccc(Nc2ncnc(N3CC(Oc4ccccc4F)C3)n2)c1` [Example 192], 5.6 µM.
Consider `CNC(=O)c1cccc(Nc2ncnc(N3CCC(Oc4ccc(F)c(OC(F)(F)F)c4)CC3)n2)c1` [Example 193], for which the IC50 turned out to be 5.79 µM.
With `CNC(=O)c1cccc(Nc2ncnc(N3CC(Oc4ccc(C(F)(F)F)cc4Cl)C3)n2)c1` [Example 194] the figure was 5.97 µM; with `CNC(=O)c1cccc(Nc2ncnc(N3CCN(c4ccc(C#N)cc4)CC3)n2)c1` [Example 195], 6.03 µM.
With `CNC(=O)c1cccc(Nc2ncnc(N3CCC(Cc4ccc(F)cc4)CC3)n2)c1` [Example 196] the figure was 6.4 µM.
For `CNC(=O)c1cccc(Nc2ccnc(N3CC(COc4ccc(Cl)cc4)C3)n2)c1` [Example 197], the IC50 turned out to be 6.8 µM.
With `CNC(=O)c1cccc(Nc2ncnc(N3CCN(c4ccc(F)cc4)CC3)n2)c1` [Example 198], it took 6.83 µM to reach half-maximal inhibition (IC50).
The compound `CNC(=O)c1cccc(Nc2ncnc(N3CC(Oc4cccc(-c5ccccc5)c4)C3)n2)c1` [Example 199] showed an IC50 of 7.02 µM.
In the case of `NC(=O)c1cccc(Nc2ncnc(N3CCC(OCc4ccc(OC(F)(F)F)cc4)CC3)n2)c1` [Example 200], 7.03 µM corresponded to half-maximal inhibition (IC50).
On to `CNC(=O)c1cccc(Nc2ncnc(N3CC(COc4cccc(Cl)c4)C3)n2)c1` [Example 201], for which the IC50 turned out to be 7.03 µM.
Consider `CNC(=O)c1cccc(Nc2ncnc(N3CCN(c4ccc(OC(F)(F)F)cc4)CC3)n2)c1C` [Example 202], for which 7.12 µM corresponded to half-maximal inhibition (IC50).
In turn, `CNC(=O)c1cccc(Nc2ncnc(N3CCCN(Cc4ccccc4)CC3)n2)c1` [Example 203] registered an IC50 of 7.42 µM.

A word on the IC50: it is the concentration at which inhibition is half-maximal. Read a low IC50 as greater potency.
